{"source": "paper PMC2011106", "about": "“Structure/activity relationships for the enhancement by electron-affinic drugs of the anti-tumour effect of CCNU” (British Journal of Cancer, 1982)", "key": {"KHT sarcoma": {"tested_on": "KHT sarcoma", "test": "regrowth-delay assay: enhancement of the anti-tumour effect of CCNU", "type": "in vivo, C3H mice", "conditions": "for enhancement of CCNU response relative to MISO: 2.5 mmol/kg 30 min before 10 mg/kg CCNU; for sensitizer dose/response curve, activity: Fig. 4, various sensitizer doses; for growth delay, test compound given alone: without CCNU"}, "[1]": {"conditions": "for toxicity at 2.5 mmol/kg: 2.5 mmol/kg i.p.; for toxicity: dose not stated, tested at MTD"}, "KHT tumour": {"tested_on": "KHT tumour", "parameters": "method as in Rauth et al. (1978)", "conditions": "same tumour and mouse strain, similar timing; ref Rauth et al. (1978); cited from earlier work"}, "ascites L1210 leukaemia": {"tested_on": "ascites L1210 leukaemia", "parameters": "method as in Klubes et al., 1979", "conditions": "mice; ref Klubes et al., 1979; cited from earlier work"}, "RIF-1 sarcoma": {"tested_on": "RIF-1 sarcoma", "parameters": "method as in Siemann (1982)", "conditions": "5 mmol/kg; ref Siemann (1982); cited from earlier work"}, "[2]": {"conditions": "at close to maximum tolerated dose (MTD, below 2.5 mmol/kg) 30 min before 10 mg/kg CCNU"}}, "note": "“Also recorded” adds a separate entry of the source. Where a name gives a salt, the structure may show the parent alone. Read-outs that look alike come from different tables or passages of the source.", "data": [{"smiles": "O=C(Cn1ccnc1[N+](=O)[O-])NCc1ccccc1", "note": "[BENZO, benznidazole]", "values": [{"measurement": "enhancement of CCNU response relative to MISO", "setting": "KHT sarcoma", "result": "most active"}, {"measurement": "dose-modifying factor (DMF)", "setting": "KHT sarcoma; 2.5 mmol/kg + 10 mg/kg CCNU compared with 20 mg/kg CCNU alone", "result": "> 2"}, {"measurement": "sensitizer dose/response curve, activity", "setting": "KHT sarcoma; 10 mg/kg CCNU", "result": "good activity at doses down to 0-05-0-1 mmol/kg"}, {"measurement": "activity relative to MISO at low doses", "setting": "KHT sarcoma; low doses 0.1-0.9 mmol/kg, 10 mg/kg CCNU", "result": "considerably more active than MISO"}]}, {"smiles": "NC(=O)c1cc(N2CC2)c([N+](=O)[O-])cc1[N+](=O)[O-]", "note": "[CB 1954, 2,4-dinitro-5-aziridinylbenzamide]", "values": [{"measurement": "toxicity at 2.5 mmol/kg", "setting": "[1]", "result": "toxic"}, {"measurement": "toxicity", "setting": "[1]", "result": "rather toxic"}, {"measurement": "enhancement of CCNU response", "setting": "KHT sarcoma; mouse, in vivo", "result": "no enhancement of CCNU response at MTD"}, {"measurement": "growth delay, test compound given alone", "setting": "KHT sarcoma", "result": "about 1 day"}]}, {"smiles": "O=NN(CCCl)C(=O)NC1CCCCC1", "note": "[CCNU, 1-(2-chloroethyl)-3-cyclohexyl-1-nitrosurea]", "values": [{"measurement": "median growth delay", "setting": "KHT sarcoma; CCNU 20 mg/kg alone, 11 independent experiments", "result": 10, "unit": "days"}]}, {"smiles": "O=[N+]([O-])c1nccn1CC(O)CO", "note": "(stereo not shown) [DEMIS, desmethylmisonida- zole]", "values": [{"measurement": "in vivo radiosensitization", "setting": "KHT tumour", "result": "good radiosensitization"}, {"measurement": "enhancement of CCNU response relative to MISO", "setting": "KHT sarcoma", "result": "considerably less active than MISO"}]}, {"smiles": "Cc1ncc([N+](=O)[O-])n1CCO", "note": "[METRO, metronidazole]", "values": [{"measurement": "enhancement of CCNU response relative to MISO", "setting": "KHT sarcoma", "result": "activities similar or even superior to MISO"}, {"measurement": "tumour response", "setting": "KHT sarcoma; 10 mmol/kg + 10 mg/kg CCNU, Fig. 4", "result": "about the same as with 2-5 mmol/kg MISO"}, {"measurement": "sensitizer dose/response curve, activity", "setting": "KHT sarcoma; 10 mg/kg CCNU", "result": "rather less active than MISO"}, {"measurement": "decrease in body temperature", "setting": "10 mmol/kg", "result": 10, "unit": "°C"}]}, {"smiles": "COCC(O)Cn1ccnc1[N+](=O)[O-]", "note": "(stereo not shown) [MISO, misonidazole]", "values": [{"measurement": "Activity Index (AI) for enhancement of CCNU effect", "setting": "KHT sarcoma; mouse, in vivo, 10 mg/kg", "result": 1}, {"measurement": "decrease in body temperature", "setting": "mouse, in vivo", "result": "1-2"}]}, {"smiles": "Cn1cnc([N+](=O)[O-])c1S(=O)(=O)Oc1ccccc1", "note": "[NSC 38087]", "values": [{"measurement": "toxicity at 2.5 mmol/kg", "setting": "[1]", "result": "toxic"}, {"measurement": "toxicity", "setting": "[1]", "result": "highly toxic"}, {"measurement": "enhancement of CCNU response", "setting": "KHT sarcoma; [2]", "result": "little activity at MTD"}]}, {"smiles": "CCCC(C(=O)OCCN(CC)CC)(c1ccccc1)c1ccccc1", "note": "[SKF 525A, proadifen hydrochloride]", "values": [{"measurement": "effect on LD50 of methyl-CCNU", "setting": "ascites L1210 leukaemia", "result": "reducing the LD50"}, {"measurement": "response of ascites L1210 leukaemia to methyl-CCNU", "setting": "ascites L1210 leukaemia", "result": "increased the response"}, {"measurement": "enhancement of CCNU response", "setting": "KHT sarcoma; 0.13 mmol/kg, 10 mg/kg CCNU, 10 mg/kg", "result": "increased the anti-tumour effect of CCNU; also recorded: active"}]}, {"smiles": "O=C(Cn1ccnc1[N+](=O)[O-])NCCO", "note": "[SR-2508]", "values": [{"measurement": "enhancement of RIF-1 tumour response to CCNU", "setting": "RIF-1 sarcoma", "result": "Some enhancement"}]}, {"smiles": "O=C1c2ccccc2C(=O)c2cc(S(=O)(=O)O)ccc21", "note": "[anthraquinone sulphonate, anthraquinone-2-sulphonate]", "values": [{"measurement": "toxicity at 2.5 mmol/kg", "setting": "[1]", "result": "non-toxic"}, {"measurement": "enhancement of CCNU response relative to MISO", "setting": "KHT sarcoma", "result": "reasonable activity"}, {"measurement": "decrease in body temperature", "setting": "2.5 mmol/kg", "result": "5-6 °C"}]}, {"smiles": "Cn1cnc([N+](=O)[O-])c1Sc1ncnc2nc[nH]c12", "note": "[azathioprine]", "values": [{"measurement": "toxicity at 2.5 mmol/kg", "setting": "[1]", "result": "toxic"}, {"measurement": "enhancement of CCNU response", "setting": "KHT sarcoma; 1.4 mmol/kg, compared with 2.5 mmol/kg MISO, 10 mg/kg CCNU", "result": "superior to 2-5 mmol/kg MISO"}, {"measurement": "enhancement of CCNU response", "setting": "KHT sarcoma; [2]", "result": "more active than MISO"}, {"measurement": "growth delay, test compound given alone", "setting": "KHT sarcoma", "result": "about 1 day"}]}, {"smiles": "O=[N+]([O-])c1nccn1CC(O)CN1CCCCC1", "note": "(stereo not shown) [compound 13]", "values": [{"measurement": "enhancement of CCNU response relative to MISO", "setting": "KHT sarcoma", "result": "Neither was more effective than MISO"}, {"measurement": "enhancement of CCNU response relative to MISO", "setting": "KHT sarcoma; listed as Ro 03-8799", "result": "slightly less than MISO"}]}, {"smiles": "CC1=C(C)C(=O)C(C)=C(C)C1=O", "note": "[duroquinone]", "values": [{"measurement": "toxicity", "setting": "[1]", "result": "quite toxic"}, {"measurement": "enhancement of CCNU response", "setting": "KHT sarcoma; [2]", "result": "little or no activity"}]}, {"smiles": "c1c[nH]cn1", "note": "[imidazole]", "values": [{"measurement": "enhancement of CCNU response", "setting": "KHT sarcoma; 5 mmol/kg (not shown), 10 mg/kg CCNU", "result": "ineffective"}]}, {"smiles": "CC1=CC(=O)c2ccccc2C1=O", "note": "[menadione]", "values": [{"measurement": "toxicity", "setting": "[1]", "result": "quite toxic"}, {"measurement": "enhancement of CCNU response", "setting": "KHT sarcoma; [2]", "result": "little or no activity"}]}, {"smiles": "O=[N+]([O-])c1cncn1CCN1CCOCC1", "note": "[nimorazole]", "values": [{"measurement": "enhancement of CCNU response relative to MISO", "setting": "KHT sarcoma", "result": "activities similar or even superior to MISO"}]}, {"smiles": "O=C1CN(/N=C/c2ccc([N+](=O)[O-])o2)C(=O)N1", "note": "[nitrofurantoin]", "values": [{"measurement": "toxicity at 2.5 mmol/kg", "setting": "[1]", "result": "toxic"}, {"measurement": "enhancement of CCNU response", "setting": "KHT sarcoma; [2]", "result": "virtually inactive"}]}, {"smiles": "NC(=O)N/N=C/c1ccc([N+](=O)[O-])o1", "note": "[nitrofurazone]", "values": [{"measurement": "toxicity at 2.5 mmol/kg", "setting": "[1]", "result": "toxic"}, {"measurement": "enhancement of CCNU response", "setting": "KHT sarcoma; [2]", "result": "reasonable activity; also recorded: reasonably active, but less than 2-5 mmol/kg MISO"}]}]}
